Key:
ROS in mesangial cells = assay: Determination of reactive oxygen species (ROS) in LPS-treated mesangial cells; assay type: cell-based, Mouse; details: in 5 minutes; for inhibition at 0.012 µg/mL / inhibition at 0.048 µg/mL: Mus musculus, Mesangial cell, 5 min, read-out: Inhibiting ROS %; for effect for inhibiting ROS / anti-oxidative effect (in words): 0.012 μg/ml and 0.048 μg/ml
Protocol: Determination of ROS was by detecting the intensity of fluorescence from an oxide of 2′,7′-dichlorofluorescein diacetate (2′,7′-dichlorofluorescein diacetate). The mesangial cells was treated as compounds which are to be measured, and 2′,7′-dichlorofluorescein diacetate (2 μM) was added to react for 30 minutes. After reaction for 30 minutes, LPS was added at specific time. Then, the signals were determined by […] (Bio-Rad Laboratories, Inc) with exciting wavelength of 485 nm and emitting wavelength of 530 nm.
Because ROS was inseparably related to kidney diseases, the results for determination of ROS in the aforementioned cells were shown in FIG. 2A-2F.

MCP-1 = assay: Anti-inflammatory response: MCP-1 in supernatant by ELISA; assay type: cell-based, Mouse; details: for anti-inflammation (MCP-1) inhibition effect (in words): 0.012 μg/ml and 0.048 μg/ml; for inhibition at 0.012 µg/mL / inhibition at 0.048 µg/mL: Mus musculus, read-out: Inhibited MCP-1 level
Protocol: It is known that MCP1 plays an important role in interstitial inflammation, tubular atrophy, and kidney fibrosis. Therefore, by performing the protein test, the effects of Antrodia camphorata about anti-inflammation for the cells in kidney can be determined.
According to the manual, MCP-1 in the supernatant was detected by ELISA kits (Biosciences, Los Angeles, Calif., USA) and was determined by ELISA reader (Bio-Tek) (for wavelength absorbance of 450 nm). * * * indicated as p<0.005, NS indicated.

[1] = tested on: mesangial cells (Mouse MC line CRL-1927); assay: MTT cell viability assay using mesangial cells; details: all chosen concentrations (0.01~200 μg/ml), 48 hours, FIGS. 1A-1F
Protocol: Here, Mouse MC line CRL-1927 was used in order to proceed the subsequent experiments. The cell line was derived from American Type Culture Collection (Rockville, Md., USA), and then was operated regular culture with a culture medium consisted of Dulbecco's modified Eagle's medium and Ham's F-12 medium with 3:1 ratio, and adding 5% fetal bovine serum and 14 mM HEPES.
The aforementioned cell line was cultured in the culture medium for 24 hours. The cells after hyperplasia were washed once with PBS, and treated with 1 time trypsin-EDTA, and followed by centrifuging at 1,200 rpm for 5 minutes, and the cells sedimented to form the cell pellet and the supernatant was removed. Then, 10 ml fresh medium was added, and the cells were re-suspended by shaking slightly. The cells were placed in 96-well microplate. When they were tested, 0.01˜200 μg/ml compounds from Antrodia camphorata were added into each of the well. The cells were incubated at 37° C. with 5% CO2 for 48 hours. Subsequently, 5 mg/ml 3-(4,5-dimethylthiazol-2-yl)-2,5-diphenyltetrazolium bromide (MTT) were added into the each well to react in the dark environment for 2 hours. Furthermore, in order to calculate the survival rate of the cells, the absorbance at wavelength of 570 nm was determined by enzyme-linked immunosorbent assay, and then the needed concentration for the half growth inhibition ratio (IC50) was calculated. […]

Compound	inhibition at 0.012 µg/mL (ROS in mesangial cells; 0.012 μg/ml)	inhibition at 0.048 µg/mL (ROS in mesangial cells; 0.048 μg/ml)	anti-inflammation (MCP-1) inhibition effect (in words) (MCP-1)	inhibition at 0.012 µg/mL (MCP-1; 0.012 μg/ml)	inhibition at 0.048 µg/mL (MCP-1; 0.048 μg/ml)	effect for inhibiting ROS / anti-oxidative effect (in words) (ROS in mesangial cells)	Inhibiting ROS % (ROS in mesangial cells; 0.012 μg/ml)	Inhibiting ROS % (ROS in mesangial cells; 0.048 μg/ml)	Inhibited MCP-1 level (MCP-1; 0.012 μg/ml)	Inhibited MCP-1 level (MCP-1; 0.048 μg/ml)	effect on mesangial cell growth (MTT cell viability) [1]
COC1=C(OC)C(OC(C)=O)C(CC=C(C)CCC=C(C)CC(O)C=C(C)C)C(C)C1=O (centres unmarked) [Antrocamol LT2, 4-acetoxy-5-[9-hydroxy-3,7,11-trimethyldodeca-2,6,10-trienyl]-2,3-dimethoxy-6-met hyl-cyclohex-2-enone]	0%	0%	did not have the effects of inhibition	0%	0%						
COC1=C(OC)[C@H](O)[C@H](C/C=C(\C)CC/C=C(\C)C/C=C/C(C)(C)O)[C@@H](C)C1=O [Antrocamol LT3, (4R,5R,6R)-4-hydroxy-5-[(2E,6E,9E)-11-hydroxy-3,7,11-trimethyldodeca-2,6,9-trienyl]-2,3-dimethoxy-6-methylcyclohex-2-enone]	0%	0%	better effect for inhibiting MCP-1 level	0%	40.2%	did not have the inhibiting effect					
Antroquinonol B			did not have the effects of inhibition			exhibited anti-oxidation for nephritis cells	0%	12.5%	0%	0%	did not affect mesangial cells to grow
4-acetyl-Antroquinonol B						exhibited anti-oxidation for nephritis cells	5%	12%	0%	0%	did not affect mesangial cells to grow
COC1=C(OC)C(O)C(CC=C(C)CCC=C(C)CC(O)C=C(C)C)C(C)C1=O (centres unmarked) [Antrocamol LT1, 4-hydroxy-5-[9-hydroxy-3,7,11-trimethyldodeca-2,6,10-trienyl]-2,3-dimethoxy-6-met hyl-cyclohex-2-enone]	3%	14%	did not have the effects of inhibition	0%	0%						
COC1=C(OC)[C@H](O)[C@H](C/C=C(\C)CC/C=C(\C)CCC=C(C)C)[C@@H](C)C1=O [Antroquinonol, reference compound]	0%	0%	did not have the effects of inhibition	0%	0%	did not have the inhibiting effect					
